The values below come from US20230390287A1, “MODULATORS OF PD-L1/PD-1 INTERACTION AND USES THEREOF” (Ramot at Tel-Aviv University Ltd., priority 2021, published 2023).

The test system of one series is MDA-MB-231 cells. In words: MTT cell viability, MDA-MB-231. The class given is cell-based, human. Particulars: 1, 10, 100 μM, 48 hours. On the procedure:
(§1) For the MTT assays, cells were seeded in 96-multi-well plate at a concentration of 7,000 cells per well. Six hours after seeding, cells were treated with the compounds and DMSO as a negative control. Forty-eight hours after the addition of the compounds, 20 μl of MTT (Sigma-Aldrich) dissolved in 5 mg/ml of PBS were added to each well and incubated for 2 hours at 37° C. Solutions were removed, and 100 μl of DMSO were added to each well and gently mixed on a shaker. The absorbance of control and treated wells was read against a DMSO blank at 570 nm using an Epoch micro-plate reader (Biotek). Each hit compound was tested in three replicates, in three independent experiments.
(§2) Human breast cancer MDA-MB-231 and melanoma A375 cells were exposed to increasing concentrations (1, 10, and 100 μM) of selected compounds for 48 hours. Cell viability was normalized to untreated cells. Three different concentrations 100 μM (blue), 10 μM (green) and 1 μM (gray) were tested. Data are presented as mean±SD, N=3, n=3 and N=1, n=3, from three or one independent experiment(s) performed in triplicate.

For a further series, the system named is A375 cells. In words: MTT cell viability, A375. The class given is cell-based, human. Particulars: 1, 10, 100 μM, 48 hours. On the procedure:
as §1, §2

Series [1] deals with PD-1/PD-L1 interaction on MDA-MB-231 cells. In words: Cell-based PD-1/PD-L1 inhibition (accessible PD-L1 by flow cytometry), MDA-MB-231. More on the design: species or system human. Particulars: 10 μM, 72 hours. On the procedure: (§3) PD-1/PD-L1 Inhibition on Human Melanoma and Breast Cancer Cell Lines:
(§4) Cells (0.1×10^6 cells) were tested for PD-1/PD-L1 inhibition by co-incubation of hit compounds, DMSO (background), BMS-202 (Selleckchem) and anti-human PD-L1 (BioxCell, Clone 29E.2A3) (positive controls) for 72 hours in 2 ml DMEM medium. Non-confluent cell cultures were scraped into single-cell suspension, washed with PBS, and counted. Cells were subsequently stained with PD-1 fluorescent proxy for 30 minutes at 4° C., washed twice and resuspended in FACS buffer. Cells were analyzed using BD LSRFortessa (BD Biosciences) and data analyzed with FlowJo software for Mac (FlowJo, LLC 2013-2016). Mean fluorescence intensity (MFI) was derived from each sample. The PD-1/PD-L1 inhibition in cells was measured by a decrease in MFI relative to background.
The selected cell lines were incubated with the selected compounds to assess compound-binding affinities, and consequently PD-1/PD-L1 inhibition. The levels of remaining accessible PD-L1 in these cells were evaluated by FACS analysis using a fluorescence PD-1 proxy. To understand compound activity, different incubation times (24, 48 and 72 hours) were evaluated on MDA-MB-231 breast cancer cell line.
(§5) The remaining accessible PD-L1 was determined by flow cytometry.

The test system of series [2] is PD-1/PD-L1 interaction on A375 cells. In words: Cell-based PD-1/PD-L1 inhibition (accessible PD-L1 by flow cytometry), A375. More on the design: species or system human. Particulars: A375 stimulated with IFN-γ; 10 μM; 72 hours. As for the experimental part:
as §3, §4, §5
Background: In flow cytometry, cells or beads pass a laser one at a time.

The target in a further series is PD-1/PD-L1 interaction (Homo sapiens (Human), UniProt Q9NZQ7). In words: HTRF PD-1/PD-L1 binding assay. The class given is biochemical. The arrangement: key to HTF assay (100 μM): +: positive compounds using 100 μM on HTRF. Conditions: for dose-response effect in HTRF: 8 doses starting from 100 μM; for HTF assay (100 μM): compounds at 100 μM, hits defined as at least 50% inhibition of PD-1/PD-L1 interaction.
Chain of PD-1/PD-L1 interaction (Q9NZQ7 19-238): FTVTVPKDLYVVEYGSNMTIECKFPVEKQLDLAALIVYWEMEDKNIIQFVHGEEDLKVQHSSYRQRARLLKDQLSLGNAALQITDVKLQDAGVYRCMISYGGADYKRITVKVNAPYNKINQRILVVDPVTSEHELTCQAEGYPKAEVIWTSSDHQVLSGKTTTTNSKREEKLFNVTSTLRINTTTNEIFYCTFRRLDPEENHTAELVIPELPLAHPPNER

A further series has as its target recombinant human PD-L1 (Homo sapiens (Human), UniProt Q9NZQ7). In words: Differential scanning fluorimetry (DSF) thermal denaturation. The class given is binding. Conditions: for thermal shift / stabilization of PD-L1: 100 μM compound, 1% DMSO. As for the experimental part: DSF was performed in a C1000 Touch thermal cycler equipped with a CFX96 optical reaction module (Bio Rad). For all fluorescence measurements, samples contained recombinant human PD-L1 (ThermoFisher) at 500 μg/ml in phosphate buffered saline (PBS), pH 7.4, 5% (m/v) Mannitol, 5% (m/v) Trehalose, 0.02% (v/v) Tween® 80, 2.5-fold SYPRO® Orange, 1% (v/v) DMSO (Sigma-Aldrich) and 100 μM of each compound. The PCR plate was sealed with Optical-Quality Sealing Tape (Bio-Rad) and centrifuged at 300 g for 5 minutes. The DSF assay was carried out by increasing the temperature from 20 to 90° C., with a 1 second hold time every 0.2° C. and fluorescence acquisition using the FRET channel, after an initial incubation step of 10 minutes at 20° C. Control experiments in the absence of DMSO and/or compounds were routinely performed in each microplate.
Data were processed using CFX Manager Software V3.0 (Bio-Rad) and the GraphPad Prism 7. Temperature scan curves were fitted to a dose-response sigmoid function (Boltzmann equation) and the melting temperature (Tm values) were obtained from the midpoint of the transition. Normalization of the RFU was also performed to prevent distraction due to different maximum and minimum values upon compounds treatment. The RFU values from different data sets were converted to a common scale 0-1, where 0 represents the fluorescence of the native protein and 1 the fluorescence of the denatured protein. To monitor the binding properties towards each compound, DSF assays were run in the absence and presence of 100 μM compounds using 1% (v/v) DMSO as vehicle control.
To test this hypothesis, the melting temperature (Tm) of the PD-L1 was determined in thermal denaturation assays by differential scanning fluorimetry (DSF) and checked for a shift in the proteins' Tm (ΔTm) in the presence of the PD-L1 inhibitor candidates. The extent of temperature shift is proportional to the compounds' stabilizing effect and thereby used to infer inhibitors' affinity.
(DSF heats the sample and reads unfolding from a dye or from intrinsic fluorescence.)

A short description of series [3]: Compound stability (no method given). The class given is physicochemical.
[4] abbreviates: HTRF dose-response starting from 100 μM.
Where [5] appears, read: Table A, HTRF dose-response, NA = Not applicable (No dose-response effect).
Setting [6] is: Table B, HTRF dose-response, NA = no dose-response effect.

A word on the IC50: it is the concentration needed to halve the response being measured.

Chain of recombinant human PD-L1 (Q9NZQ7 19-238): as above

Consider `COc1nc(OCc2cccc(-c3ccccc3)c2C)ccc1CNCCNC(C)=O` [BMS202, reference compound], for which the “toxicity (cell viability, MTT)” value in the series with MDA-MB-231 cells and in the series on A375 cells was “higher toxicity at the highest concentration” throughout. Moreover, the “impact on PD-L1 accessibility / PD-1/PD-L1 interaction” value in series [1] and in series [2] was “did not exhibit a significant impact” in each case.

As to `CC(C)(C)OC(=O)N1CCN(c2cc(-c3ccc(Oc4ccccc4)cc3)n[nH]2)CC1` [Compound 30], on PD-1/PD-L1 interaction, the “dose-response effect in HTRF” value was “no dose-response was observed” and the “HTF assay (100 μM)” value is “+”.

On to `O=C(c1ccc(-c2ccccc2)cc1)c1nc(-c2ccc(-c3ccccc3)cc2)c[nH]1` [Compound 73], for which the IC50 on PD-1/PD-L1 interaction (setting [4]), on PD-1/PD-L1 interaction (setting [5]) and on PD-1/PD-L1 interaction (setting [6]) was 149 nM each time. In addition, on PD-1/PD-L1 interaction, the “HTF assay (100 μM)” value is “+”. Moreover, the “interference with the fluorescence-dye in DSF” value (“interference” below) at recombinant human PD-L1 is reported as “revealed to interfere”. Also, the “toxicity (cell viability, MTT)” value in the series with MDA-MB-231 cells and with A375 cells was “toxicity higher or similar to that obtained for BMS202” each time.

As to `Cc1cc(SCC(=O)c2ccc3c(ccc4ccccc43)c2)cc(C)[o+]1.[Br-]` [Compound 47], the IC50 at PD-1/PD-L1 interaction (setting [4]), at PD-1/PD-L1 interaction (setting [5]) and on PD-1/PD-L1 interaction (setting [6]) was 149 nM throughout. Moreover, the “HTF assay (100 μM)” value at PD-1/PD-L1 interaction is “+”. For the same molecule, at recombinant human PD-L1, the “thermal shift / stabilization of PD-L1” value is on record as “stabilization of PD-L1”.

As to `N#Cc1nc(CC(=O)/C=C/c2ccccc2)c(CC(=O)/C=C/c2ccccc2)nc1C#N` [Compound 18], the IC50 at PD-1/PD-L1 interaction (setting [4]), at PD-1/PD-L1 interaction (setting [5]) and on PD-1/PD-L1 interaction (setting [6]) was 190 nM each time. Besides, at PD-1/PD-L1 interaction, the “HTF assay (100 μM)” value is “+”. Moreover, in series [3], the stability of compound entry is recorded as “stability issues”.

For the molecule `CCN(CC)CCNc1nc(NCCN(CC)CC)c2nc(-c3ccccc3)c(-c3ccccc3)nc2n1` [Compound 1], the IC50 at PD-1/PD-L1 interaction (setting [4]), at PD-1/PD-L1 interaction (setting [5]) and at PD-1/PD-L1 interaction (setting [6]) was 186 nM throughout. Further, the “HTF assay (100 μM)” value at PD-1/PD-L1 interaction is on record as “+”. The “interference” value on recombinant human PD-L1 was “revealed to interfere”. For the same molecule, the “toxicity (cell viability, MTT)” value in the series with MDA-MB-231 cells and with A375 cells was “toxicity higher or similar to that obtained for BMS202” throughout.

Turning to `CC1(C)OCC(C2OC3OC(C)(C)OC3C2NNC(=O)c2cc3cc(OCc4ccccc4)ccc3[nH]2)O1` (stereo not drawn) [Compound 71], the half-inhibitory concentration (IC50) at PD-1/PD-L1 interaction (setting [4]), on PD-1/PD-L1 interaction (setting [5]) and on PD-1/PD-L1 interaction (setting [6]) was 380 nM each time. The “HTF assay (100 μM)” value at PD-1/PD-L1 interaction is recorded as “+”. The “interference” value at recombinant human PD-L1 is “revealed to interfere”.

As for `CC1CCCCN1C(=O)NCCc1coc(-c2ccc(F)cc2)n1` (stereo not drawn) [Compound 32], on PD-1/PD-L1 interaction, the “dose-response effect in HTRF” value is recorded as “no dose-response was observed” and the “HTF assay (100 μM)” value is recorded as “+”.

On to `CN(C)CCNC(=O)N1CCCN(c2ncnc3cc(-c4ccccc4)sc23)CC1` [Compound 35], for which, at PD-1/PD-L1 interaction, the “dose-response effect in HTRF” value is on record as “no dose-response was observed” and the “HTF assay (100 μM)” value was “+”.

For `COc1ccc(-c2nc(N)nc(-c3cc(C)ccc3O)c2Cl)cc1` [Compound 45], the half-maximal inhibitory concentration (IC50) on PD-1/PD-L1 interaction (setting [4]), at PD-1/PD-L1 interaction (setting [5]) and at PD-1/PD-L1 interaction (setting [6]) was 596 nM in each case. The “HTF assay (100 μM)” value at PD-1/PD-L1 interaction is listed as “+”.

Take `COc1ccc(-c2nc(N)nc(-c3cc(C)ccc3OC)c2Cl)cc1` [Compound 5]: the 50% inhibitory concentration (IC50) on PD-1/PD-L1 interaction (setting [4]), on PD-1/PD-L1 interaction (setting [5]) and on PD-1/PD-L1 interaction (setting [6]) was 2440 nM throughout. In addition, the “HTF assay (100 μM)” value at PD-1/PD-L1 interaction is recorded as “+”. The “thermal shift / stabilization of PD-L1” value on recombinant human PD-L1 is listed as “stabilization of PD-L1”.

For `Cc1nc(C)c(C(=O)NNC(=O)Cc2ccccc2)cc1C(=O)NNC(=O)Cc1ccccc1` [Compound 84], the half-maximal inhibitory concentration (IC50) on PD-1/PD-L1 interaction (setting [4]), on PD-1/PD-L1 interaction (setting [5]) and at PD-1/PD-L1 interaction (setting [6]) was 1090 nM each time. Further, the “HTF assay (100 μM)” value on PD-1/PD-L1 interaction is listed as “+”. In addition, the “thermal shift / stabilization of PD-L1” value at recombinant human PD-L1 is recorded as “stabilization of PD-L1”.

For `CCCCCCCCSc1nc2ccc(/N=C\c3ccccc3O)cc2s1` [Compound 42], the IC50 at PD-1/PD-L1 interaction (setting [4]), at PD-1/PD-L1 interaction (setting [5]) and on PD-1/PD-L1 interaction (setting [6]) was 57 nM each time. On PD-1/PD-L1 interaction, the “HTF assay (100 μM)” value was “+”. In addition, the “thermal shift / stabilization of PD-L1” value on recombinant human PD-L1 was “stabilization of PD-L1”.

As for `O=C(NC1CC1)c1ccc(N2CCC(Cc3ccccc3)CC2)nc1` [Compound 38], on PD-1/PD-L1 interaction, the “dose-response effect in HTRF” value is recorded as “no dose-response was observed” and the “HTF assay (100 μM)” value is given as “+”.

For the molecule `Cc1cc(C)nc(NS(=O)(=O)c2ccc(NC(=O)c3cccnc3Nc3cccc(Cl)c3)cc2)n1` [Compound 75], the IC50 at PD-1/PD-L1 interaction (setting [4]), at PD-1/PD-L1 interaction (setting [5]) and on PD-1/PD-L1 interaction (setting [6]) was 1550 nM in each case. Also, the “HTF assay (100 μM)” value at PD-1/PD-L1 interaction is recorded as “+”. For the same molecule, the “thermal shift / stabilization of PD-L1” value at recombinant human PD-L1 is reported as “stabilization of PD-L1”. For the same molecule, the “toxicity (cell viability, MTT)” value with MDA-MB-231 cells and in the series on A375 cells was “toxicity higher or similar to that obtained for BMS202” throughout.

For the molecule `CN1CCN(S(=O)(=O)c2ccc(-c3ccc4c(Nc5ccc6nn[nH]c6c5)ccnc4c3)cc2)CC1` [Compound 29], the IC50 at PD-1/PD-L1 interaction (setting [4]), at PD-1/PD-L1 interaction (setting [5]) and on PD-1/PD-L1 interaction (setting [6]) was 4000 nM each time. On PD-1/PD-L1 interaction, the “HTF assay (100 μM)” value is “+”. For the same molecule, the stability of compound result in series [3] was “stability issues”.
